# Molecular target: T1, USP8 (Homo sapiens, UniProt P40818)
# T1 construct: His (from pFastBac-HT vector) (N); made in house; host or cells: Sf9 or High Five insect cells, baculovirus
# T1 sequence (P40818 1-1118): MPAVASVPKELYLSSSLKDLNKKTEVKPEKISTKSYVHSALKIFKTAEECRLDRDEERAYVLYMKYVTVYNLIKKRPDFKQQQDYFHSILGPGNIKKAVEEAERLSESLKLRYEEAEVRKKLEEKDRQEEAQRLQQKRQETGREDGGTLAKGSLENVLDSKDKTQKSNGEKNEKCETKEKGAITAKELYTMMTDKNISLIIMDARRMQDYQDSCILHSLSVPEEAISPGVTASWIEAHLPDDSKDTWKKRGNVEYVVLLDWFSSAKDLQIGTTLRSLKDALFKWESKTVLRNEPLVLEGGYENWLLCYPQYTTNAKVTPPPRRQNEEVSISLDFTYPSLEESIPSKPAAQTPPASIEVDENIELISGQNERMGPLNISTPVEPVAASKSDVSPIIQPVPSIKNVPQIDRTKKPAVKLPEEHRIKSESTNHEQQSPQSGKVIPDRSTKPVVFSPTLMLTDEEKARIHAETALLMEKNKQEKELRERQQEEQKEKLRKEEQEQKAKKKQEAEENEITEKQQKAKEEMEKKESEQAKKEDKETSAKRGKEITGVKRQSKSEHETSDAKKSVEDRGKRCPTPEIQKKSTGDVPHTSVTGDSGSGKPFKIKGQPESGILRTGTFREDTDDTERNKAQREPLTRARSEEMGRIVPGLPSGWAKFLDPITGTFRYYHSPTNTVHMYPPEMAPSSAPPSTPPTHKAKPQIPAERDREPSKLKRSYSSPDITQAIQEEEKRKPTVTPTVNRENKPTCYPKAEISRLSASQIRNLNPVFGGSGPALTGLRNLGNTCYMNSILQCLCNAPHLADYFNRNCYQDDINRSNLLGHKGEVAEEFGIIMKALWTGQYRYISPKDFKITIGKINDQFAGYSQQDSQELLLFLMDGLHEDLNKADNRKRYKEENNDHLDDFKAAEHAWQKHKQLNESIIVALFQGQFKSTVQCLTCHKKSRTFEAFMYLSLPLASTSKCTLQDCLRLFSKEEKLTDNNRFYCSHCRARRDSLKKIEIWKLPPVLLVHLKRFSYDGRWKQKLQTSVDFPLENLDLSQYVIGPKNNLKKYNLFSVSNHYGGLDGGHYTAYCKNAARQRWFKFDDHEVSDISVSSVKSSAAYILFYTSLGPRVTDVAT
# Assay: USP8 activity assay (Ub-AMC substrate)
# Format: biochemical
# Details: Ub-AMC 300 nM, USP8 1.36 nM
# From the text: The cDNA encoding USP8 was obtained by PCR amplification from placenta mRNA. USP8 cDNA was subcloned by PCR into a baculovirus expression vector (pFastBac-HT; Invitrogen). A cDNA encoding a mutated USP8 was generated by mutagenic PCR. The corresponding protein encodes a cysteine to alanine substitution at residue 786. The sequences were ascertained by sequencing of the entire open reading frame. Bacmids encoding USP8 were generated following DH10bac transposition. The corresponding bacmids were transfected into insect cells (Sf9). Viruses were recovered from culture supernatant and amplified twice. Insect cells (Sf9 or High Five; Invitrogen) were infected for 72 hours. Total cell lysates were harvested and lyzed in lysis buffer (Tris HCl 50 mM pH7.6; 0.75% NP40; 500 mM NaCl; 10% glycerol; 1 mM DTT; 10 mM imidazole; Protease Inhibitor Cocktail; AEBSF 20 μg·ml^−1; Aprotinin 10 μg·ml^−1). Proteins were affinity purified on metal affinity resins (Talon Metal affinity resin; BD Biosciences). Bound materials were extensively washed in wash buffer (50 mM Sodium Phosphate pH 7.0; 300 mM NaCl; 10 mM imidazole; 0.5% Triton X-100; 10% glycerol) and eluted from the resin in 250 mM imidazole-containing wash buffer. Proteins were dialyzed in dialysis buffer (Tris HCl pH 7.6 20 mM; NaCl 200 mM; DTT 1 mM; EDTA 1 mM; 10% Glycerol). Proteins purifications were analyzed on 4-12% NuPAGE (Invitrogen).
# USP8 was diluted in USP buffer (50 mM Tris HCl; 0.5 mM EDTA; 5 mM DTT; 0.01% Triton X-100; Bovine Serum Albumin 0.05 mg·ml^−1 pH8.8). Compounds stocks (100 mM) were stored at −20° C. in DMSO. Compounds were tested at different concentrations: from 200 μM to 91 nM.
# Reactions were performed as duplicates in Black 384 well plates (small volume microplates; Greiner; 10 μl final reaction volume). The substrate concentration for USP8 was 300 nM Ub-AMC (Boston Biochem). The concentration of the enzyme (USP8) in specificity assays was 1.36 nM. The concentrations were determined in order to perform specificity assays under initial velocities at fixed substrate concentration. Compounds were pre-incubated with enzymes for 30 minutes at 25° C. Reactions were initiated by addition of substrate to the plates containing the enzymes (+/− compounds) diluted in assay buffer. Reactions were incubated for 60 minutes at 37° C. Reactions were stopped by adding acetic acid (100 mM final). Readings were performed on a Pherastar Fluorescent Reader (BMG). λ Emission 380 nm: λ Excitation=460 nm. Data (mean values +/− standard deviation) were analyzed as % of control (no compound) and plotted as percentage versus the Log of the compound concentration using GraphPad (Prism). Data were fitted to a sigmoidal model (variable slope).
row,Structure (SMILES),IC50
1,CN(C)c1ccc(CN2CCC(CNC(=O)c3ccc4c(Cl)c5c(nc4c3)CCCC5)CC2)cc1 [Example 23],> 200 µM
2,"COc1ccc(CN2CCC(CNC(=O)c3ccc4c(Cl)c5c(nc4c3)CCCC5)CC2)cc1 [Example 22, 9-chloro-N-((1-(4-methoxybenzyl)piperidin-4-yl)methyl)-5,6,7,8-tetrahydroacridine-3-carboxamide]",> 200 µM
3,"O=C(NCC(CN1CCCC1)C(O)c1ccccc1)c1ccc2c(Cl)c3c(nc2c1)CCCC3 (stereo not drawn) [Example 25, 9-chloro-N-(3-hydroxy-3-phenyl-2-pyrrolidin-1-ylmethylpropyl)-5,6,7,8-tetrahydroacridine-3-carboxamide]",> 200 µM
4,"O=C(Nc1cccc(CN2CCCC2)c1)c1ccc2c(Cl)c3c(nc2c1)CCCC3 [Example 19, 9-chloro-N-(3-(pyrrolidin-1-ylmethyl)phenyl)-5.6,7,8-tetrahydroacridine-3-carboxamide]",> 200 µM

# The remaining lines, values ahead:
row,IC50,Structure (SMILES)
1,> 200 µM,"O=C(NCc1cccc(CN2CCCC2)c1)c1ccc2c(Cl)c3c(nc2c1)CCCC3 [Example 18, 9-chloro-N-(3-(pyrrolidin-1-ylmethyl)benzyl)-5,6,7,8-tetrahydroacridine-3-carboxamide]"
2,~200 µM,"O=C(NCC1CCNCC1)c1ccc2c(Cl)c3c(nc2c1)CCCC3 [Example 24, 9-chloro-N-((piperidin-4-yl)methyl)-5,6,7,8-tetrahydroacridine-3-carboxamide]"
3,> 200 µM,"CC1CCCCN1CCCNC(=O)c1ccc2c(Cl)c3c(nc2c1)CCCC3 (stereo not drawn) [Example 20, 9-chloro-N-(3-(2-methylpiperidin-1-yl)propyl)-516,7,8-tetrahydroacridine-3-carboxamide]"
4,> 200 µM,"CN1CCCC1CCNC(=O)c1ccc2c(Cl)c3c(nc2c1)CCCC3 (stereo not drawn) [Example 17, 9-chloro-N-(2-(1-methylpyrrolidin-2-yl)ethyl)-5,6,7,8-tetrahydroacridino-3-carboxamide]"
5,> 200 µM,"O=C(NCc1ccc(CN2CCCC2)cc1)c1ccc2c(Cl)c3c(nc2c1)CCCC3 [Example 21, 9-chloro-N-(4-(pyrrolidin-1-ylmethyl)benzyl)-5,6,7,8-tetrahydroacridine-3-carboxamide]"

# Reference: patent US9328093B2, “Selective inhibitors of ubiquitin specific protease 7, the pharmaceutical compositions thereof and their therapeutic applications” (HYBRIGENICS SA, priority 2010, dated 2016)
